Some results are limits rather than exact numbers.

For one series, the target named is T1, CHRM3 (Homo sapiens, UniProt P20309).
T1 construct: Pharmaron (Beijing, China), contract laboratory
Nature of the series: GPCR calcium flux assay. It is filed as cell-based. On the technique in general: Calcium flux is commonly read through the fluorescence of an indicator in the cells.

Another series has as its target human EP3 (Homo sapiens, UniProt P43115). Nature of the series: PGE2-induced calcium flux assay in CHO-Gα16 cells. The format is cell-based.
For another series, the system named is 4T1 tumors. Nature of the series: 4T1 breast cancer model in BALB/c mice. The format is in vivo, mouse. To be noted: 4T1, BALB/c mice, 75 mg/kg p.o. daily. On the procedure:
(§1) Syngeneic mouse tumor‐bearing models were established as described previously (Tan et al., 2018). Tumor cells (5 × 10^5 ‐ 2 × 10^6) were suspended in 100 μl PBS and implanted subcutaneously into the flank of mice. Mice were randomized into different treatment groups when tumor volumes reached 100‐200 mm^3. V = L×W^2 × 0.52, where L is the longest diameter, and W is the shortest diameter. Tumor size and body weight were recorded every second or third day. Mouse survival was analyzed using the Kaplan–Meier method.
(§2) Single agent or combination treatment was designed as follows: TP‐16 (37.5, 75, 150 mg/kg) or celecoxib (100 mg/kg) was formulated in 0.5% carboxymethylcellulose sodium (CMC‐Na, Sangon Biotech, Shanghai, China) and administered via oral gavage daily. In vivo anti‐PD1 antibody (clone RMP1‐14, BioXCell, West Lebanon, NH, USA) and rat IgG2a isotype control (clone 2A3, BioXCell) were diluted in sterile PBS and administered intraperitoneally at a dose of 50 μg twice weekly.

The target in a further series is T2, OPRM1 (Homo sapiens, UniProt P35372).
T2 construct: Pharmaron (Beijing, China), contract laboratory
Nature of the series: GPCR calcium flux assay. The format is cell-based.

A further series concerns DLD1. The series can be described thus: Cell viability (MTS). It is filed as cell-based, human. To be noted: DLD1, 100 µM. The source says: (§3) The murine colon cancer (CT26), murine breast cancer (4T1), and human colon cancer (HCT116, HCT8, HT29, and DLD1) cell lines were obtained from American Type Culture Collection (ATCC). The murine cell lines of melanoma (B16F10), pancreatic cancer (Pan02), and colon cancer (MC38), Chinese hamster ovary (CHO) cell line, and human embryonic kidney cell lines (HEK293 and HEK293T) were purchased from the National Infrastructure of Cell Line Resource (Shanghai, China). Primary human endothelial cells (HUVECs) were kindly provided by Dr. Xinli Wang (Baylor College of Medicine, Houston, TX, USA) and cultured in endothelial cell medium (ScienCell, San Diego, CA, USA) according to the manufacturer’s instructions. The CHO‐Gα16 cell line was established in our previous study and maintained in DMEM/F12 medium containing puromycin (4 μg/ml) (Wu et al., 2018). Cell lines were maintained in vendor recommended growth medium supplemented with 10% FBS (Gibco, Waltham, MA, USA) and 1% penicillin/streptomycin solution (Gibco) at 37°C ins a humidified atmosphere (5% CO2). All cell lines were authenticated using short tandem repeat analysis. All cell lines were confirmed to be mycoplasma‐free by polymerase chain reaction (PCR) analysis. Cell viability was determined using CellTiter 96 ® Aqueous One Solution (Promega, Madison, WI).
(§4) Appendix Figure S1. […]. The cytotoxicity curves
(§5) . Mouse cancer cells: CT26
(§6) . Human colon cancer cells: HCT116 (E),
(§7) HCT8 (F), HT29 (G) and DLD1 (H). Human normal cell line: HUVECs (I). Cell
(§8) viability was measured by MTS. Data are presented as mean ± SEM derived
(§9) from three independent experiments (n=3).
(§10) (1 picture or pasted object on this page, not shown here)

In a further series the test system is HCT116. Nature of the series: Cell viability (MTS). It is filed as cell-based, human. To be noted: HCT116, 100 µM.
Source text: as §3, §4, §5, §6, §7, §8, §9, §10

For another series, the system named is HUVEC. Nature of the series: Cell viability (MTS). The format is cell-based, human. To be noted: 100 µM.
Source text: as §3, §4, §5, §6, §7, §8, §9, §10

Another series has as its system HCT8. Nature of the series: Cell viability (MTS). To be noted: HCT8, 100 µM. The format is cell-based, human.
Source text: as §3, §4, §5, §6, §7, §8, §9, §10

Another series deals with HT29. Nature of the series: Cell viability (MTS). It is filed as cell-based, human. To be noted: HT29, 100 µM.
Source text: as §3, §4, §5, §6, §7, §8, §9, §10

For the next series, the target named is T3, CHRM1 (Homo sapiens, UniProt P11229).
T3 construct: Pharmaron (Beijing, China), contract laboratory
Nature of the series: GPCR calcium flux assay. The format is cell-based.

The next series deals with HTR1B (Homo sapiens, UniProt P28222). Nature of the series: LANCE Ultra cAMP assay. (Time-resolved FRET reads energy transfer from a long-lived donor to a nearby acceptor.)
In another series the target is T4, ADRA2A (Homo sapiens, UniProt P08913).
T4 construct: Pharmaron (Beijing, China) performed the assay
The series can be described thus: GPCR calcium flux assay. The format is cell-based.

In a further series the target is T5, AT1 (Homo sapiens, UniProt P30556).
T5 construct: Pharmaron (Beijing, China), contract laboratory
The series can be described thus: GPCR calcium flux assay. It is filed as cell-based.

Another series has as its system CT26 tumors. The series can be described thus: CT26 tumors in BALB/c nude mice. The format is in vivo, mouse. To be noted: 75 mg/kg. As for the experimental part:
as §1, §2

The test system of another series is other 25 GPCRs. The series can be described thus: GPCR selectivity (LANCE Ultra cAMP assay and calcium flux assay). To be noted: read-out: IC50 on other 25 GPCRs; LANCE Ultra cAMP and calcium flux assays.
Series [1] has as its system AOM/DSS-induced colorectal tumors. The series can be described thus: AOM/DSS-induced colorectal cancer model. The format is in vivo, mouse. To be noted: AOM/DSS mice, TP-16 75 mg/kg po daily, anti-PD-1 50 μg ip twice weekly, 5 weeks. On the procedure: ; i.p.; Sigma‐Aldrich, St. Louis, MO, USA). After 1 week of rest, mice were provided with 2.5% DSS (MP Biomedicals, Santa Ana, CA, USA) in their drinking water for 5 days, followed by DSS‐free water for two weeks. The DSS treatment cycle was carried out three times in total, and mice were randomized into four groups and subjected to the therapeutic protocol. Mice were sacrificed at 37 days after the indicated treatments.
as §2

A further series concerns the target T6, ADRA1D (Homo sapiens, UniProt P25100).
T6 construct: Pharmaron (Beijing, China) performed the assay
The series can be described thus: GPCR calcium flux assay. It is filed as cell-based.

Another series concerns the target DRD2 (Homo sapiens, UniProt P14416). The series can be described thus: LANCE Ultra cAMP assay.
The next series concerns the target CB1 (Homo sapiens, UniProt P21554). Nature of the series: LANCE Ultra cAMP assay.
In a further series the target is T7, OPRD1 (Homo sapiens, UniProt P41143).
T7 construct: Pharmaron (Beijing, China), contract laboratory
The series can be described thus: GPCR calcium flux assay. It is filed as cell-based.

The next series has as its target T8, CHRM2 (Homo sapiens, UniProt P08172).
T8 construct: Pharmaron (Beijing, China), contract laboratory
Nature of the series: GPCR calcium flux assay. It is filed as cell-based.

For another series, the system named is CT26-Luc tumors. The series can be described thus: CT26-Luc orthotopic colorectal cancer mouse model. It is filed as in vivo.
For a further series, the target named is T9, OPRK1 (Homo sapiens, UniProt P41145).
T9 construct: Pharmaron (Beijing, China), contract laboratory
The series can be described thus: GPCR calcium flux assay. It is filed as cell-based.

T5 sequence (P30556 whole entry): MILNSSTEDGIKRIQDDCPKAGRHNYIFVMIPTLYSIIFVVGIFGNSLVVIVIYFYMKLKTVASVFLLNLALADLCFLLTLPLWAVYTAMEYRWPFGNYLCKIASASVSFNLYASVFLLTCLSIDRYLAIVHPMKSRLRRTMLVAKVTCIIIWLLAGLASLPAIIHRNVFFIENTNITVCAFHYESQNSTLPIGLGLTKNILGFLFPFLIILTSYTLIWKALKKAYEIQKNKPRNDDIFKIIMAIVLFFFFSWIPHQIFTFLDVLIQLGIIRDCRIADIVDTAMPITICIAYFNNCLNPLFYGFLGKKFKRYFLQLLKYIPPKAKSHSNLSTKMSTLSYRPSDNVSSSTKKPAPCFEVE
Chain of HTR1B (P28222 whole entry): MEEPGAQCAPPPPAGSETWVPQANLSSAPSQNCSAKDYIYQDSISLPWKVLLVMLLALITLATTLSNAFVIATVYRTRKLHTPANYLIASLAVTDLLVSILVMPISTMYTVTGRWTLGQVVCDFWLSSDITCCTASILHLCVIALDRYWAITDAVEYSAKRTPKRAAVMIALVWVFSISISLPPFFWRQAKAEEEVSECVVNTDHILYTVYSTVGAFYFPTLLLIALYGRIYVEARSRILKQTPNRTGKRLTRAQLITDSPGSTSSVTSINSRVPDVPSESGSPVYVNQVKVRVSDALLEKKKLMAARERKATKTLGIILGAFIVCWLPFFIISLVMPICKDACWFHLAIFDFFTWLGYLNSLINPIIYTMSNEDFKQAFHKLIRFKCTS
T6 sequence (P25100 whole entry, species assumed): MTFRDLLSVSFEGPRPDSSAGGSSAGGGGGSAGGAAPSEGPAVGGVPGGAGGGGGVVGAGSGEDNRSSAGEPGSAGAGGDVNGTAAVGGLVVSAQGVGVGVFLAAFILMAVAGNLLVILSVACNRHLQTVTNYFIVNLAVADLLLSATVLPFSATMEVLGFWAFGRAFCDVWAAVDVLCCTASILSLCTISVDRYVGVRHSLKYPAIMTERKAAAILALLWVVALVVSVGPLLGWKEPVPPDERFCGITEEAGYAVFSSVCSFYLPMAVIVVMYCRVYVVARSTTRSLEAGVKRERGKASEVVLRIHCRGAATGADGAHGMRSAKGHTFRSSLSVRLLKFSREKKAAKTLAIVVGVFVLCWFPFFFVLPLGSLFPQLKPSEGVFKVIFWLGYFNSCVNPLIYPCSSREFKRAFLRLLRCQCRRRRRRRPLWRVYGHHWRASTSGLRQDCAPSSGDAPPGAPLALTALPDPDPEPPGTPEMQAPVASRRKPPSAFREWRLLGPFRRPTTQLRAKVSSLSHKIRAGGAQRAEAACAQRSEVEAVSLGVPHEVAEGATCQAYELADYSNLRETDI
Chain of DRD2 (P14416 whole entry, species assumed): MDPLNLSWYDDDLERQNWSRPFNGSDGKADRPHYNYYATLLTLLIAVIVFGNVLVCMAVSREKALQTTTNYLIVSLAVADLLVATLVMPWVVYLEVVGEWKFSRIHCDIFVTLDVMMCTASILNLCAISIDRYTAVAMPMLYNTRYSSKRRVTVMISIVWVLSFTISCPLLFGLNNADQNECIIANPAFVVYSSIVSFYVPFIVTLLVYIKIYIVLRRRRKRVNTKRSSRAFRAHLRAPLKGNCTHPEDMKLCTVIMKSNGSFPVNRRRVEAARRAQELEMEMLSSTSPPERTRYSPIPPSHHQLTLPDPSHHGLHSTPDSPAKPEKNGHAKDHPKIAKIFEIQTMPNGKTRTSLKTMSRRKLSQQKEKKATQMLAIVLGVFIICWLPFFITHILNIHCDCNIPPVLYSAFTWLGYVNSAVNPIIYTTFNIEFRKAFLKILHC
T9 sequence (P41145 whole entry, species assumed): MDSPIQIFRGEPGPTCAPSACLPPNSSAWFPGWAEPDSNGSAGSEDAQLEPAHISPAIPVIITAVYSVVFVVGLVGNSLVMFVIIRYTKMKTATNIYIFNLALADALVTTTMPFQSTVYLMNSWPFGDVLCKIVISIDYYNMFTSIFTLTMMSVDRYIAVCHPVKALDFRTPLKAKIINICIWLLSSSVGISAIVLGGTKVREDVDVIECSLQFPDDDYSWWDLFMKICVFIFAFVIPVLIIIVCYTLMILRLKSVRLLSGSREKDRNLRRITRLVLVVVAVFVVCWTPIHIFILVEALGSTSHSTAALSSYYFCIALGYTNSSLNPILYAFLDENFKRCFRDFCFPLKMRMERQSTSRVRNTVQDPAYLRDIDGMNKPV
Chain of human EP3 (P43115 1-359 limits assumed): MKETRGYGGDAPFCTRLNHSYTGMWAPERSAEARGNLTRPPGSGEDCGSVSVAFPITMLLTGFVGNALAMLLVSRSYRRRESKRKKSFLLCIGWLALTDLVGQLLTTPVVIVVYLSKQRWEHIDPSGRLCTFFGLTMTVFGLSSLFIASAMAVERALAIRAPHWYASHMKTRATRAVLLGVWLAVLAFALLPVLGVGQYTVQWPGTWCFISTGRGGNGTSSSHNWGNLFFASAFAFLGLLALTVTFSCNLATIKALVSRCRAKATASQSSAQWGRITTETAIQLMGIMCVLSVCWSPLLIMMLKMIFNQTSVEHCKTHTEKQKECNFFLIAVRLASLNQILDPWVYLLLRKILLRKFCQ
T3 sequence (P11229 whole entry, species assumed): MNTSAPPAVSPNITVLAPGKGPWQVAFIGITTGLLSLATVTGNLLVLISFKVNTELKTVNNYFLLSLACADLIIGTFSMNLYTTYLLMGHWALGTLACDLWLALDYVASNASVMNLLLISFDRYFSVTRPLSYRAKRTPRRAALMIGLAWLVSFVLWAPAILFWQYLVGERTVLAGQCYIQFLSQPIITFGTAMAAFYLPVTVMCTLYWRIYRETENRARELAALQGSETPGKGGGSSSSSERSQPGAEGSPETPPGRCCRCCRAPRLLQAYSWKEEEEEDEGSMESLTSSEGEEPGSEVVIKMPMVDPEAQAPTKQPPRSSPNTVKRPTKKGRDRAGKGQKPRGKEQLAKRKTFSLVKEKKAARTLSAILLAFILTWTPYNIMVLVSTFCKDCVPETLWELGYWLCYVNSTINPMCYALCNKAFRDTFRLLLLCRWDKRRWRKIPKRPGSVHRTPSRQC
T2 sequence (P35372 whole entry, species assumed): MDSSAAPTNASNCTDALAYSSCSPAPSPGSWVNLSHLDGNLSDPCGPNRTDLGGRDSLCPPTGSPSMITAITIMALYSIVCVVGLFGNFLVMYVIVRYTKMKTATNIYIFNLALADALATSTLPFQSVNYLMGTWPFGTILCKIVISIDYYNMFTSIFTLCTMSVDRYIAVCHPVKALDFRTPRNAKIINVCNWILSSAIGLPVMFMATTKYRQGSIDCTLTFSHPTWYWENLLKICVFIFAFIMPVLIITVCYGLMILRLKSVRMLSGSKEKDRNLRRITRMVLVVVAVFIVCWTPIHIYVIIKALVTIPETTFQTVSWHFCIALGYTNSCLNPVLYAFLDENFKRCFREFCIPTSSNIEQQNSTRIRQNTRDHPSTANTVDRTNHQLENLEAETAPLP
Chain of CB1 (P21554 whole entry, species assumed): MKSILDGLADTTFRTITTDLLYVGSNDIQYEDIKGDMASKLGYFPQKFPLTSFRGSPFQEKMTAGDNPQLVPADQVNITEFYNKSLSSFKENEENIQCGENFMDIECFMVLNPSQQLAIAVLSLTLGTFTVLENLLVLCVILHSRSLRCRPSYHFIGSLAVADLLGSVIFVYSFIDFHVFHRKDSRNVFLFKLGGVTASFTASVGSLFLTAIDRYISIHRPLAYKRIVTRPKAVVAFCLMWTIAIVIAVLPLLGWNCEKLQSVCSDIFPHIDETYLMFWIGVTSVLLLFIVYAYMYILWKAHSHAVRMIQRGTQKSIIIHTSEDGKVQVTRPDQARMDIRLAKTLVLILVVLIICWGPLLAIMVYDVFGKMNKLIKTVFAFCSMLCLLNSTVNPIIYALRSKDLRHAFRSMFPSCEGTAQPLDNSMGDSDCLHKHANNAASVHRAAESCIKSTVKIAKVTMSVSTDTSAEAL
T4 sequence (P08913 whole entry, species assumed): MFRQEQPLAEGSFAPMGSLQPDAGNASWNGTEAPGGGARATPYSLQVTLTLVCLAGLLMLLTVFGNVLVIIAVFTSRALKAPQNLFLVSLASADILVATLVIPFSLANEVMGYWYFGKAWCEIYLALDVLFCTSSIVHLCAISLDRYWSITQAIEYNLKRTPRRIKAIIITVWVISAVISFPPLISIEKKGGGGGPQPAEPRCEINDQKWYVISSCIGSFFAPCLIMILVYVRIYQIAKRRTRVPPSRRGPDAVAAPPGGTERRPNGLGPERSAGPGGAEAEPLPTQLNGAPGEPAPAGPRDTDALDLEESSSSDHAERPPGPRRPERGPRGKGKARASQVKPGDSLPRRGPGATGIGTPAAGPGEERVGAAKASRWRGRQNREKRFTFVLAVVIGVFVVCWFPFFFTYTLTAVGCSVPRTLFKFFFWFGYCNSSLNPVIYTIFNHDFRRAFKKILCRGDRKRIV
T8 sequence (P08172 whole entry, species assumed): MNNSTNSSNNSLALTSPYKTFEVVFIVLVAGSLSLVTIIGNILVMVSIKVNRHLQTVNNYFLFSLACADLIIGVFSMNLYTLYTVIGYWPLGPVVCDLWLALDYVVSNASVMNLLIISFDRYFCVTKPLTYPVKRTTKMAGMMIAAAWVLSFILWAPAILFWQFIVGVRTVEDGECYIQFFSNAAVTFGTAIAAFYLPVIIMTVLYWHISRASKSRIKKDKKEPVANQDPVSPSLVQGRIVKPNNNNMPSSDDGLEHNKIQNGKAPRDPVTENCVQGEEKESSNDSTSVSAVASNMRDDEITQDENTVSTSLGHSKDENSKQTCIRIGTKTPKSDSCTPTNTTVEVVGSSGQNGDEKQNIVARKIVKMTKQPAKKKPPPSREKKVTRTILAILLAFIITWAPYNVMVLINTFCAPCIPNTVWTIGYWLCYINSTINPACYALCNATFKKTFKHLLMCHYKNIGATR

Turning to `C[C@H](NC(=O)c1c(Cc2ccc(F)cc2)sc2c1CCOC2)c1ccc(C(=O)O)cc1` [TP-16], the IC50 on CHRM3, at human EP3, on OPRM1, at CHRM1, on HTR1B and at ADRA2A was above 10 µM in each case. For the same molecule, the IC50 at AT1, in the series with other 25 GPCRs, on ADRA1D, against DRD2, at CB1 and at OPRD1 was above 10 µM each time. Besides, the IC50 on CHRM2 and at OPRK1 was above 10 µM each time. Further, the “%TGI” value was 27.3% with 4T1 tumors and 76.22% in the series on CT26-Luc tumors (CT26-Luc orthotopic model). In addition, the “effect on cell viability” value in the series with DLD1, with HCT116, with HUVEC, in the series with HCT8 and in the series with HT29 was “did not affect the viability” throughout. Also, in the series with CT26 tumors, the “anti-tumor efficacy in BALB/c nude mice” value was “lost”. Besides, in [1], the “tumor number (multiplicity) and size” value is on record as “moderately reduced”. The “body weight of tumor-bearing mice” value with CT26-Luc tumors (at the given doses) was “no significant change”.

Source of the values: paper PMC7799360, “Reprogramming immunosuppressive myeloid cells facilitates immunotherapy for colorectal cancer” (EMBO Molecular Medicine, 2020).
